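Values below derive from 48-hour exposures of cells grown in 96-well plates, with endpoints linearly interpolated between the two concentrations bracketing the appropriate inhibition level. GI50: concentration for 50% inhibition of growth. The concentration for full growth arrest is given as TGI.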
Key:
Experiment in all cases: DTP human tumour cell line panel, 48 h
HOP-62 NSCLC = test system: HOP-62 NSCLC
RXF 393 renal = test system: RXF 393 renal
SK-MEL-28 melanoma = test system: SK-MEL-28 melanoma
DMS 114 small cell lung = test system: DMS 114 small cell lung
HOP-92 NSCLC = test system: HOP-92 NSCLC
HCT-116 colon = test system: HCT-116 colon
SNB-78 CNS = test system: SNB-78 CNS
DMS 273 small cell lung = test system: DMS 273 small cell lung
HL-60(TB) leukemia = test system: HL-60(TB) leukemia
TK-10 renal = test system: TK-10 renal
M14 melanoma = test system: M14 melanoma
SR leukemia = test system: SR leukemia

| Compound | TGI (HOP-62 NSCLC) | TGI (RXF 393 renal) | TGI (SK-MEL-28 melanoma) | TGI (DMS 114 small cell lung) | TGI (HOP-92 NSCLC) | TGI (HCT-116 colon) | TGI (SNB-78 CNS) | TGI (DMS 273 small cell lung) | TGI (HL-60(TB) leukemia) | TGI (TK-10 renal) | TGI (M14 melanoma) | TGI (SR leukemia) | GI50 (HOP-92 NSCLC) |
| --- | --- | --- | --- | --- | --- | --- | --- | --- | --- | --- | --- | --- | --- |
| Cc1c(-c2cc3n(n2)C(c2cccs2)C(C#N)=C(c2ccccc2)N3)c(=O)n(-c2ccccc2)n1C (centres undefined) | > 100 µM | > 100 µM | > 100 µM | > 100 µM | > 100 µM | > 100 µM | > 100 µM | > 100 µM | > 100 µM | – | – | – | – |
| C=C1c2c(cc3c(c2O)c(=O)c2ccccc2n3C)OC1(C)C | – | – | > 100 µM | > 100 µM | 65.9 µM | – | > 100 µM | > 100 µM | > 100 µM | > 100 µM | > 100 µM | – | – |
| O=P(O)(O)C(CSc1ccccc1)P(=O)(O)O | > 100 µM | > 100 µM | > 100 µM | > 100 µM | > 100 µM | > 100 µM | > 100 µM | > 100 µM | > 100 µM | – | – | – | – |
| CC(C)(C)[Si](C)(C)OCCCC#CCO | – | > 100 µM | > 100 µM | > 100 µM | – | – | > 100 µM | > 100 µM | 70.9 µM | > 100 µM | > 100 µM | – | – |
| NC(=O)CCC(NCc1c2ccccc2[n+]([O-])c2ccccc12)C(=O)O (centres undefined) | > 100 µM | – | > 100 µM | > 100 µM | – | > 100 µM | > 100 µM | > 100 µM | 74.1 µM | > 100 µM | > 100 µM | – | – |
| CC(=O)c1ccc(Oc2ccc(/C(C)=N\N=C(N)N)cc2)cc1 | 9.72 µM | – | 17.4 µM | 4.98 µM | 13.8 µM | 13 µM | 16.6 µM | – | – | 12.8 µM | 4.76 µM | – | – |
| O=C(NO)c1coc2ccccc2c1=O | – | > 100 µM | > 100 µM | > 100 µM | – | – | > 100 µM | > 100 µM | > 100 µM | > 100 µM | > 100 µM | – | – |
| CC1(c2ccc(Cl)cc2)CC(c2ccc(Cl)cc2)=C(C#N)C(=C(C#N)C#N)N1 (centres undefined) | 25.1 µM | 32.1 µM | > 100 µM | – | 11 µM | 31.7 µM | – | – | 78.6 µM | 32.6 µM | 36.6 µM | > 100 µM | – |
| CC(=O)OCC1OC(n2c(N)c(C#N)c(-c3ccccc3)c(C#N)c2=S)C(OC(C)=O)C(OC(C)=O)C1OC(C)=O (centres undefined) | 45 µM | > 70.5 µM | > 100 µM | – | 50.9 µM | > 100 µM | – | – | > 100 µM | > 100 µM | > 100 µM | > 100 µM | – |
| CC(=O)Nc1ccc(CNc2cc(=O)[nH]c(=O)[nH]2)cc1 | > 100 µM | > 100 µM | > 100 µM | – | > 100 µM | > 100 µM | – | – | > 100 µM | > 100 µM | > 100 µM | > 100 µM | – |
| Cc1cc(N(CCC#N)CCC#N)ccc1/C(N=Nc1cccc([N+](=O)[O-])c1)=N/NC(=O)c1cc(Cl)ccc1O | > 100 µM | 72.2 µM | > 100 µM | – | 76.3 µM | > 100 µM | – | – | 37.8 µM | > 100 µM | > 100 µM | 45 µM | – |
| c1ccc(C2SCC3=Nc4ccccc4CN32)cc1 (centres undefined) | > 100 µM | 38.9 µM | > 100 µM | – | > 100 µM | 51.9 µM | – | – | 89.9 µM | > 100 µM | > 100 µM | > 100 µM | – |
| O=C(O)CSc1cc(-c2ccccc2)nc2ccccc12 | > 100 µM | 94.8 µM | > 100 µM | – | > 100 µM | 22 µM | – | – | 58.2 µM | > 100 µM | > 100 µM | > 100 µM | – |
| OCCN(CCO)c1ccc2c(C(F)(F)F)cc(C(F)(F)F)nc2n1 | > 100 µM | > 100 µM | > 100 µM | – | > 100 µM | > 100 µM | – | – | > 100 µM | > 100 µM | > 100 µM | > 100 µM | – |
| CC(=O)[O-].CC(=O)[O-].O=C(N/N=C/c1cc(Cl)cc(Cl)c1[OH2+])c1ccncc1.[Co+2] | > 100 µM | > 100 µM | > 100 µM | – | 95.9 µM | > 100 µM | – | – | > 100 µM | > 100 µM | > 100 µM | > 100 µM | 23.6 µM |
| Cc1nc2c(o1)C(=O)c1ccccc1/C2=N/c1ccccn1 | 37.8 µM | > 100 µM | 32.8 µM | – | 36.9 µM | 41.8 µM | – | – | 44.2 µM | > 100 µM | 33.6 µM | 97.3 µM | – |
| O=C(CN1CCN(C(=O)OCc2ccccc2)CCN(CC(=O)N2CCCCC2)CCN(C(=O)OCc2ccccc2)CC1)N1CCCCC1 | 42.2 µM | 39.1 µM | 27.9 µM | – | 27.2 µM | 18.5 µM | – | – | > 35.4 µM | 26.5 µM | 25 µM | 11.8 µM | – |
| Cc1ccc(/C=C/C(=O)c2c([O-])on[n+]2-c2ccccc2)cc1 | 24.9 µM | 3.65 µM | 5.75 µM | – | 16.8 µM | 3.65 µM | – | – | 6.55 µM | 10.3 µM | 5.98 µM | > 27.5 µM | – |

Reference: PubChem BioAssay (NCI)
